The source of these data is patent publication US20240166652A1, “MODULATORS OF THE INTEGRATED STRESS PATHWAY” (Calico Life Sciences LLC, priority 2017, published 2024).

The test has as its system ATF4 luciferase reporter in HEK293T cells. In words: ATF4-Luc assay (ATF4 luciferase reporter, tunicamycin-treated HEK293T cells). The note with it: Homo sapiens, HEK-293T; HEK293T cells carrying the ATF4 luciferase reporter, 1 μg/mL tunicamycin, 7 hours. It is filed as cell-based, human. A general note: In a reporter assay the amount or activity of a reporter protein is the signal.
As for `O=C(COc1ccc(C(F)(F)F)nc1)NC12CCC(NC(=O)COc3ccc(Cl)c(Cl)c3)(CC1)[C@@H](O)C2` [Compound 583, 2-(3,4-dichlorophenoxy)-N-[(2S)-2-hydroxy-4-(2-{[6-(trifluoromethyl)pyridin-3-yl]oxy}acetamido)bicyclo[2.2.2]octan-1-yl]acetamide], the EC50 – broadly, the concentration at which the effect is half-maximal – was under 10 nM. Then `O=C(COc1ccc(F)c(F)c1)NC12CC(NC(=O)COc3ccc(Cl)c(Cl)c3)(C1)C2` [Compound 584, 2-(3,4-dichlorophenoxy)-N-{3-[2-(3,4-difluorophenoxy)acetamido]bicyclo[1.1.1]pentan-1-yl}acetamide], with under 10 nM; and `O=C(COc1ccc(F)c(F)c1)NC12CCC(NC(=O)COc3ccc(Cl)c(F)c3)(CC1)[C@@H](O)C2` [Compound 586, 2-(4-chloro-3-fluorophenoxy)-N-{(2S)-4-[2-(3,4-difluorophenoxy)acetamido]-2-hydroxybicyclo[2.2.2]octan-1-yl}acetamide], with under 10 nM; and `O=C(COc1ccc(Cl)c(F)c1)NC12CCC(NC(=O)COc3ccc(F)c(F)c3)(CC1)[C@@H](O)C2` [Compound 587, 2-(4-chloro-3-fluorophenoxy)-N-{(3S)-4-[2-(3,4-difluorophenoxy)acetamido]-3-hydroxybicyclo[2.2.2]octan-1-yl}acetamide], with under 10 nM. Then `O=C(COc1ccc(F)c(Cl)c1)NC12CCC(NC(=O)COc3ccc(F)c(Cl)c3)(CC1)[C@@H](O)C2` [Compound 588, N,N′-[(2S)-2-hydroxybicyclo[2.2.2]octane-1,4-diyl]bis[2-(3-chloro-4-fluorophenoxy)acetamide]], with under 10 nM; and `O=C(COc1ccc(C(F)(F)F)nc1)NC12CCC(NC(=O)COc3ccc(Cl)c(F)c3)(CC1)[C@@H](O)C2` [Compound 589, 2-(4-chloro-3-fluorophenoxy)-N-[(2S)-2-hydroxy-4-(2-{[6-(trifluoromethyl)pyridin-3-yl]oxy}acetamido)bicyclo[2.2.2]octan-1-yl]acetamide], with under 10 nM. In the case of `O=C(COc1ccc(F)c(F)c1)NC12CC(NC(=O)COc3ccc(F)c(Cl)c3)(C1)C2` [Compound 590, 2-(3-chloro-4-fluorophenoxy)-N-{3-[2-(3,4-difluorophenoxy)acetamido]bicyclo[1.1.1]pentan-1-yl}acetamide] it was under 10 nM. As to `O=C(COc1ccc(F)c(Cl)c1)NC12CC(NC(=O)COc3ccc4c(c3)OC(F)(F)O4)(C1)C2` [Compound 591, 2-(3-chloro-4-fluorophenoxy)-N-(3-{2-[(2,2-difluoro-2H-1,3-benzodioxol-5-yl)oxy]acetamido}bicyclo[1.1.1]pentan-1-yl)acetamide], the EC50 is under 10 nM. With `O=C(COc1ccc(Cl)c(CO)c1)NC12CCC(NC(=O)COc3ccc(Cl)c(CO)c3)(CC1)[C@@H](O)C2` [Compound 592, N,N′-[(2S)-2-hydroxybicyclo[2.2.2]octane-1,4-diyl]bis{2-[4-chloro-3-(hydroxymethyl)phenoxy]acetamide}], the EC50 fell in the range of 500 to 2000 nM. Then `O=C(COc1ccc(Cl)c(C(=O)O)c1)NC12CCC(NC(=O)COc3ccc(Cl)c(C(=O)O)c3)(CC1)[C@@H](O)C2` [Compound 593, 3,3′-{[(2S)-2-hydroxybicyclo[2.2.2]octane-1,4-diyl]bis[azanediyl(2-oxoethane-2,1-diyl)oxy]}bis(6-chlorobenzoic acid)], with over 2000 nM; and `COC(=O)c1cc(OCC(=O)NC23CCC(NC(=O)COc4ccc(Cl)c(C(=O)OC)c4)(CC2)[C@@H](O)C3)ccc1Cl` [Compound 594, dimethyl 3,3′-{[(2S)-2-hydroxybicyclo[2.2.2]octane-1,4-diyl]bis[azanediyl(2-oxoethane-2,1-diyl)oxy]}bis(6-chlorobenzoate)], with over 2000 nM. Then `O=C(COc1ccc(Cl)c(F)c1)N[C@@H]1C[C@H]2CC[C@@H](C1)[C@H]2NC(=O)COc1ccc(Cl)c(F)c1` [Compound 595, N,N′-[(1R,3s,5S,8r)-bicyclo[3.2.1]octane-3,8-diyl]bis[2-(4-chloro-3-fluorophenoxy)acetamide]], with over 2000 nM.
